Measurements taken from the NIST ThermoML archive (doi:10.1016/j.jct.2007.05.004).

Experiment: xn = mol fraction of the nth substance listed
Settings: 101 kPa, Liquid

CCO [ethanol] + CCOC(C)=O
x1 = 1
Settings | mass density [kg/m3] | viscosity [mPa·s]
293.15 K | 789.75 | 1.187
298.15 K | 785.46 | 1.082
303.15 K | 781.15 | 0.987

COC(C)=O [methyl ethanoate] + CCO
Settings | mass density, 293.15 K [kg/m3] | mass density, 298.15 K [kg/m3] | mass density, 303.15 K [kg/m3] | viscosity, 293.15 K [mPa·s] | viscosity, 298.15 K [mPa·s] | viscosity, 303.15 K [mPa·s]
x2 = 0 | 933.56 | 926.98 | 920.34 | 0.386 | 0.367 | 0.348
x2 = 0.0493 | 927.83 | 921.31 | 914.73 | 0.383 | 0.363 | 0.345
x2 = 0.0987 | 922 | 915.54 | 909.02 | 0.389 | 0.365 | 0.347
x2 = 0.1998 | 909.85 | 903.54 | 897.15 | 0.398 | 0.377 | 0.359
x2 = 0.3006 | 897.16 | 891 | 884.79 | 0.419 | 0.395 | 0.374
x2 = 0.3973 | 884.52 | 878.56 | 872.54 | 0.444 | 0.418 | 0.394
x2 = 0.4863 | 872.35 | 866.59 | 860.77 | 0.477 | 0.449 | 0.422
x2 = 0.6031 | 855.48 | 849.99 | 844.45 | 0.54 | 0.505 | 0.473
x2 = 0.6972 | 841.15 | 835.91 | 830.62 | 0.615 | 0.572 | 0.537
x2 = 0.7986 | 824.84 | 819.89 | 814.9 | 0.735 | 0.684 | 0.64
x2 = 0.9009 | 807.47 | 802.85 | 798.18 | 0.903 | 0.838 | 0.768
x2 = 0.951 | 798.76 | 794.3 | 789.81 | 1.032 | 0.945 | 0.868

CO [methanol] + COC(C)=O
x1 = 1
Settings | mass density [kg/m3] | viscosity [mPa·s]
293.15 K | 791.9 | 0.585
298.15 K | 787.2 | 0.545
303.15 K | 782.48 | 0.508

CCOC(C)=O [ethyl acetate] + CO
Settings | mass density, 293.15 K [kg/m3] | mass density, 298.15 K [kg/m3] | mass density, 303.15 K [kg/m3] | viscosity, 293.15 K [mPa·s] | viscosity, 298.15 K [mPa·s] | viscosity, 303.15 K [mPa·s]
x2 = 0 | 900.52 | 894.43 | 888.3 | 0.452 | 0.426 | 0.403
x2 = 0.0474 | 898.51 | 892.43 | 886.3 | 0.447 | 0.422 | 0.4
x2 = 0.097 | 896.18 | 890.12 | 884.01 | 0.443 | 0.418 | 0.396
x2 = 0.1956 | 891.18 | 885.16 | 879.09 | 0.442 | 0.417 | 0.396
x2 = 0.2999 | 884.93 | 878.99 | 872.98 | 0.442 | 0.419 | 0.398
x2 = 0.3963 | 878.26 | 872.38 | 866.46 | 0.447 | 0.421 | 0.398
x2 = 0.4962 | 870.14 | 864.36 | 858.55 | 0.453 | 0.427 | 0.403
x2 = 0.5963 | 860.45 | 854.82 | 849.15 | 0.463 | 0.435 | 0.41
x2 = 0.6998 | 848.26 | 842.81 | 837.3 | 0.481 | 0.451 | 0.425
x2 = 0.7992 | 833.88 | 828.62 | 823.31 | 0.504 | 0.472 | 0.443
x2 = 0.9005 | 815.52 | 810.5 | 805.45 | 0.536 | 0.501 | 0.469

CCO [ethanol] + COC(C)=O
x1 = 1
Settings | mass density [kg/m3] | viscosity [mPa·s]
293.15 K | 789.75 | 1.187
298.15 K | 785.46 | 1.082
303.15 K | 781.15 | 0.987

CO [methanol] + CCOC(C)=O
x1 = 1
Settings | mass density [kg/m3] | viscosity [mPa·s]
293.15 K | 791.9 | 0.585
298.15 K | 787.2 | 0.545
303.15 K | 782.48 | 0.508

CCO [ethanol] + O
Settings | mass density, 293.15 K [kg/m3] | mass density, 298.15 K [kg/m3] | mass density, 303.15 K [kg/m3] | viscosity, 293.15 K [mPa·s] | viscosity, 298.15 K [mPa·s] | viscosity, 303.15 K [mPa·s]
x2 = 0 | 789.75 | 785.46 | 781.15 | 1.187 | 1.082 | 0.987
x2 = 0.0501 | 795.99 | 791.68 | 787.35 | 1.277 | 1.153 | 1.046
x2 = 0.0986 | 802.09 | 797.77 | 793.41 | 1.371 | 1.232 | 1.111
x2 = 0.1961 | 814.88 | 810.54 | 806.14 | 1.549 | 1.38 | 1.237
x2 = 0.2961 | 829.05 | 824.7 | 820.29 | 1.735 | 1.531 | 1.357
x2 = 0.3991 | 845.25 | 840.94 | 836.55 | 1.975 | 1.659 | 1.515
x2 = 0.4971 | 862.82 | – | – | 2.225 | – | –
x2 = 0.5989 | 884.07 | 879.89 | 875.63 | 2.479 | 2.115 | 1.821
x2 = 0.6991 | 908.69 | 904.65 | 900.55 | 2.705 | 2.275 | 1.941
x2 = 0.8001 | 937.33 | 933.65 | 929.9 | 2.7 | 2.3 | 1.937
x2 = 0.8996 | 965.71 | 963.24 | 960.61 | 2.223 | 1.86 | 1.58
x2 = 0.9499 | 979.28 | 977.72 | 975.93 | 1.63 | 1.388 | 1.207

O [water] + CCO
x1 = 1
Settings | viscosity [mPa·s]
293.15 K | 1.002
298.15 K | 0.89
303.15 K | 0.797

CO [methanol] + O
Settings | mass density, 293.15 K [kg/m3] | mass density, 298.15 K [kg/m3] | mass density, 303.15 K [kg/m3] | viscosity, 293.15 K [mPa·s] | viscosity, 298.15 K [mPa·s] | viscosity, 303.15 K [mPa·s]
x2 = 0 | 791.9 | 787.2 | 782.48 | 0.585 | 0.545 | 0.508
x2 = 0.049 | 800.06 | 795.47 | 790.84 | 0.655 | 0.607 | 0.563
x2 = 0.0993 | 808.62 | 804.11 | 799.56 | 0.735 | 0.677 | 0.627
x2 = 0.1973 | 826.11 | 821.73 | 817.31 | 0.9 | 0.821 | 0.751
x2 = 0.2983 | 845.03 | 840.79 | 836.5 | 1.086 | 0.987 | 0.889
x2 = 0.3985 | 864.67 | 860.59 | 856.45 | 1.287 | 1.15 | 1.032
x2 = 0.5003 | 885.57 | 881.69 | 877.32 | 1.481 | 1.309 | 1.164
x2 = 0.5994 | 906.58 | 902.96 | 899.26 | 1.673 | 1.463 | 1.289
x2 = 0.6997 | 928.45 | 925.21 | 921.89 | 1.793 | 1.554 | 1.342
x2 = 0.7986 | 949.8 | 947.17 | 944.42 | 1.789 | 1.542 | 1.342
x2 = 0.8999 | 971.59 | 969.84 | 967.9 | 1.522 | 1.317 | 1.147
x2 = 0.9512 | 983.86 | 982.53 | 980.97 | 1.274 | 1.121 | 0.996
